Patent US20040132764A1, “Antibiotics for the treatment of infections in acidic environments” (Morphochem Aktiengesellschaft fuer Kombinatorische Chemie, priority 2002, published 2004)
Converted amounts (≈) assume the structure as drawn. Like-named read-outs stand apart in the source and are kept apart here.

Test system: bacterial strains from the Morphochem collection
Experiment: MIC determination by microdilution method (NCCLS guidelines, IsoSensitest broth) with pH of the test medium varied
Type: cell-based
Conditions: strain not named
Method: MICs (minimal inhibitory concentrations) were determined by a microdilution method following NCCLS guidelines, except that IsoSensitest broth (Oxoid; Basingstroke, UK) was used (National Committee for Clinical Laboratory Standards “Methods for Dilution Antimicrobial Susceptibility Tests for Bacteria that Grow Aerobically”, 4th ed.; Approved standard: NCCLS Document M7-A4; National Committee for Clinical Laboratory Satandars: Villanova, Pa., USA, 1997). The medium was supplemented with 3% lysed horse blood for fastidious organisms. Serial dilutions in 96-well plates were prepared with the help of a Biomek 2000 robot. The pH of the test medium was varied from 7.8 to 6.4. The bacterial strains used were from the Morphochem collection. Clinical isolates were originally obtained from the Kantonspital Basel, Switzerland, and from other European and US hospitals.
pH-dependent antibacterial activity (MIC (μg/mL) at pH): […]

[1] = pH 6.4 of test medium, read-out: pH-dependent antibacterial activity (MIC at pH) 6.4
[2] = pH 6.8 of test medium, read-out: pH-dependent antibacterial activity (MIC at pH) 6.8
[3] = pH 7.4 of test medium, read-out: pH-dependent antibacterial activity (MIC at pH) 7.4
[4] = pH 7.8 of test medium, read-out: pH-dependent antibacterial activity (MIC at pH) 7.8

SMILES	MIC [1] [µg/mL]	MIC [2] [µg/mL]	MIC [3] [µg/mL]	MIC [4] [µg/mL]
CC(=O)NC[C@H]1CN(c2ccc(N[C@@H]3CCN(c4cc5c(cc4F)c(=O)c(C(=O)O)cn5C4CC4)C3)c(F)c2)C(=O)O1 [Example 4]	0.03 (≈ 0.0516 µM)	0.06 (≈ 0.103 µM)	0.25 (≈ 0.43 µM)	0.5 (≈ 0.86 µM)
CC(=O)NC[C@H]1CN(c2ccc(N3CCN(c4cc5c(cc4F)c(=O)c(C(=O)O)cn5C4CC4)CC3)c(F)c2)C(=O)O1 [Example 1, 7-(4-{4-[5-(acetylamino-methyl)-2-oxo-oxazolidin-3-yl]-2-fluoro-phenyl}-piperazin-1-yl)-1-cyclopropyl-6-fluoro-4-oxo-1,4-dihydro-quinoline-3-carboxylic Acid]	0.03 (≈ 0.0516 µM)	0.125 (≈ 0.215 µM)	0.25 (≈ 0.43 µM)	0.5 (≈ 0.86 µM)
CC(=O)NC[C@H]1CN(c2ccc(N3CCOCC3)c(F)c2)C(=O)O1 [linezolid, reference compound]	0.5 (≈ 1.48 µM)	0.5 (≈ 1.48 µM)	1 (≈ 2.96 µM)	1 (≈ 2.96 µM)
CC(=O)NC[C@H]1CN(c2ccc(N3CCN(c4nc5c(cc4F)c(=O)c(C(=O)O)cn5C4CC4)CC3)c(F)c2)C(=O)O1 [Example 10]	0.125 (≈ 0.215 µM)	0.25 (≈ 0.429 µM)	0.5 (≈ 0.858 µM)	1 (≈ 1.72 µM)
